{
  "source": "patent US20260335398A1",
  "about": "“METHODS FOR TREATING PANCREATIC CANCER WITH A COMBINATION OF DES-METHYL PATEAMINE A AND A CLASS I HDAC INHIBITOR” (Baylor University, priority 2023, published 2026)",
  "key": {"MIA PaCa-2 xenograft": {"tested_on": "MIA PaCa-2 xenograft", "experiment": "MIA PaCa-2 xenograft model of PDAC, tumor growth (FIG. 2A)", "type": "in vivo, athymic nude mice", "settings": "IP; romidepsin 0.75 mg/kg, DMPatA 0.075 mg/kg; once every four days 2 weeks, then every seven days 5-6 weeks", "text": "FIGS. 2A and 2B illustrate the results of a MIA PaCa-2 xenograft model of PDAC in male athymic nude mice. FIG. 2A compares tumor growth (mm^3) in mice treated with the indicated concentrations of combination, romidepsin and DMPatA using IP route and vehicles described in the materials and methods section below. FIG. 2B compares body weight (g) of mice treated with the combination and single agents following treatment. FIGS. 2C and 2D compare quantification of H3K9ac and c-MYC antibodies. Frozen sections from MIA PaCa-2 xenograft tumor tissues were subjected to immunohistochemical analysis using antibodies against H3K9ac, and c-MYC. Fluorescence images were captured using fluorescent microscopy and the fluorescent signal from H3K9ac and c-MYC antibodies were quantified. To quantify fluorescence intensity at least 500 cells per condition were measured for each antibody at 40× magnification. The median of the signal intensity is shown. Statistical significance was determined by one-way ANOVA using Tukey multiple comparisons test, ****p value<0.0001.\nAnimal studies were performed according to Institutional Animal Care and Use Committee (IACUC) protocol number AC-AABD2601. Following the establishment of initial dose levels for individual drugs, efficacy of the combination and single agents in a MIA PaCa-2 xenograft model was assessed at a tolerable dose and schedule. […]"}, "MIA PaCa-2 cells [1]": {"tested_on": "MIA PaCa-2 cells", "experiment": "Metabolic flux analysis, basal mitochondrial respiration (OCR) (FIG. 8C left)", "type": "cell-based", "settings": "MIA PaCa-2, total 18 h", "method": "(§1) FIG. 8C left panel presents the results of metabolic flux analysis showing basal mitochondrial respiration (OXPHOS) (oxygen consumption rate, OCR) in MIA PaCa-2 cells following treatment with combinations or single drugs. Treatment was for a total of 18 h, as mentioned in FIG. 8A. Statistical significance was determined by one-way ANOVA, ***p value<0.001, *p value<0.01. FIG. 8C right panel presents the results of quantification of glutamine consumption. Cells were treated as mentioned in FIG. 8A. Prior to the metabolic measurements cells were starved of glucose, glutamine, and pyruvate for 1-hour after which glutamine was added and response was recorded as ΔOCR (i.e. OCR before and after glutamine addition). Statistical significance was determined by one-way ANOVA, ****p value<0.0001, ***p value<0.0005.\n(§2) Because reprograming/augmentation of cellular metabolism by c-MYC is known to support oncogenesis, the Seahorse XF analyzer was used to assess the impact of the treatments on c-MYC-driven metabolism including ATP production, glycolysis, and mitochondrial oxidative phosphorylation (OXPHOS). Extracellular acidification rates, also known as proton efflux rate (PER), were measured for glycolysis and mitochondrial oxygen consumption rates (OCR) for OXPHOS. We utilized the 6 h exposure followed by 18 h washout strategy for romidepsin described earlier. […]"}, "MIA PaCa-2 cells [2]": {"tested_on": "MIA PaCa-2 cells", "experiment": "Glutamine consumption/rescue of mitochondrial function (ΔOCR) (FIG. 8C right)", "type": "cell-based", "settings": "cells starved of glucose, glutamine and pyruvate 1 h, then glutamine", "method": "as §1, §2"}},
  "data": [
    {"smiles": "C/C=C1\\NC(=O)[C@H]2CSSCC/C=C/[C@H](CC(=O)N[C@H](C(C)C)C(=O)N2)OC(=O)[C@H](C(C)C)NC1=O", "note": "[romidepsin]", "values": [
      {"measurement": "tumor volume", "setting": "MIA PaCa-2 xenograft", "value": "regression in tumor volume"},
      {"measurement": "mitochondrial function (OCR)", "setting": "MIA PaCa-2 cells [1]", "value": "impaired mitochondrial function"},
      {"measurement": "glutamine rescue of mitochondrial function (ΔOCR)", "setting": "MIA PaCa-2 cells [2]", "value": "impaired glutamine rescue of mitochondrial function"}
    ]}
  ]
}
